Reference: paper PMC11475408, “All‐Inorganic Polyoxometalates Act as Superchaotropic Membrane Carriers” (Advanced Materials (Deerfield Beach, Fla.), 2023)
Where “and” joins values, the source holds several entries; their conditions need not be identical. Equal values may be shown once.

Key:
[1] = Stability of POMs in nutrient mixture F-12 Ham by NMR; format: physicochemical
Description: To better mimic biological membranes, which contain negatively charged components and cholesterol, equivalent transport experiments were performed in anionic liposomes^[ [19], [20] ^] with the prototypal POM carriers, [PVW11]^4‒ and [SiMoW11]^4‒ . […] This encouraged us to transfer the experiments to CHO‐K1 (Chinese hamster ovary) cells, after we had confirmed sufficient stability of the most promising POM carriers, [PVW11]^4‒ and [SiMoW11]^4‒ , in the cellular nutrient mixture (F‐12 Ham's medium, Figures S26–S28C, Supporting Information).
Table S9. Results of stability investigation by NMR spectroscopy.
11 product, presumably [SiIVWVI12O40]4–) […]
product, presumably [SiIVWVI12O40]4–)
[AlW ]5‒ freshly prepared
[GeAlW ]5‒ freshly prepared […]
prepared ‒13.7; ‒14.7 intermediate anions
Stability of [PVW11]4‒ in 10 mM Mes buffer pH 5.5: 31P NMR studies were firstly performed on 3 mM solutions of [α-PVVVWVI11O40]4‒ in 10 mM Mes buffer pH 5.5 (Figure S25). The 31P NMR recorded immediately ([…]), one day (Figure S25B), and five days (Figure S25C) after solution preparation display the same signals that can be attributed to the intact [α-PVVVWVI11O40]4‒ (‒14.9 ppm) and the monolacunary [α-PVWVI11O40]7‒ (‒10.8 ppm) species formed upon partial hydrolysis. […]
Figure S24. 31P (A) and 51V (B) NMR spectra of 3 mM solutions of [PVW11]4‒ recorded in D2O. […]

CHO‐K1 cells = test: Cellular viability, resazurin assay; format: cell-based, Chinese hamster; details: CHO-K1, up to 10 µM carrier, 24 h, n = 3
Description: For cell viability assay in thepresence of activators, CHO‐K1 cells were incubated in Ham's F‐12 medium containing 10% fetal bovine serum and 1.0% penicillin streptomycin at 37 °C in a 5% CO2 for 24 h. CHO‐K1 cells were dispersed in a 96‐well flat bottom tissue culture treated plates (Eppendorf) at density of 5 × 10^3 cells per well (per 100 µL) and incubated in Ham's F‐12 containing 10% v/v fetal bovine serum at 37 °C in a 5% CO2 incubator for 12 h to allow cell adhesion. Then, cells were incubated with POM, B12Br12 ^2−, or PyBu (10, 50, and 100 µM) for another 24 h. After this incubation time, 20 µL resazurin solution (0.15 mg mL^−1) was added to cells and incubated for another 3 h. Finally, the plates were read at λ em = 590 nm (λ ex = 560 nm) using a JASCO fluorometer FP‐8500. The cell viability was evaluated by the following equation (4) Cellviability=FIsample−FIblank/FIcontrol−FIblank×100% where, FI sample is the fluorescence intensity of cells incubated with different compounds, FI blank is the fluorescence intensity of medium, and FI control is the fluorescence intensity of cells in absence of any compound.
6. Transport in cellular membranes
Figure S13. Viability of CHO-K1cells (resazurin assay) incubated with different carrier concentrations (0, 10, 50, and 100 µM) for 24 hours. Error bars refer to standard deviation (n = 3).
Figure S14. […]

Q: Which “% parent anion, nutrient mixture F-12 Ham freshly prepared” value ([1]; 3 mM POM, F-12 Ham pH 7.4, 31P NMR integration) does the source give for “K4[α‐P^VV^VW^VI 11O40]·4H2O [[PVW11]^4‒]” here?
A: Its value is 43%.

Q: What about the Cell viability (CHO‐K1 cells) of the same substance?
A: The Cell viability was “about 80%”.

Q: For “K4[α‐Si^IVMo^VIW^VI 11O40]·24H2O [[SiMoW11]^4‒]”, which “% parent anion, F-12 Ham after 1 h at 37 °C (183W NMR)” value ([1]; 10 mM POM, F-12 Ham (final pH 5.7), 183W NMR signal intensities) is on record?
A: The value was 50% and ~ 50%.

Q: And the Cell viability (CHO‐K1 cells)?
A: The Cell viability was “about 80%”.
